Consider 8 molecules from patent US4619932A, “Novel carbostyril derivatives, process for producing thereof and pharmaceutical composition containing the same” (Otsuka Pharmaceutical Co., Ltd., priority 1980, dated 1986).

One data set concerns Halothane anesthesia. Briefly: Halothane anesthesia increasing activity. As to conditions: 16 mg/kg oral, 1 hour before 4% Halothane for 3 minutes; righting reflex. It counts as in vivo, mouse (male, ddy-strain). The procedure:
Male mice of ddy-strain a having about 20 g body weight were used. One test group consists of 10 mice. An aqueous Gummi Arabicum suspension of test compound (80 mg of a compound to be tested and 1 g of Gummi Arabicum/100 ml of physiological NaCl solution) was administered orally to each mouse at the dosage of 16 mg of test compound/kg body. One hour after the administration, each mouse was placed in gas respiration chamber (13×13×24 cm) and oxygen gas containing 4% of Halothane (2-brome-2-chloro-1,1,1-trifluoroethane) was flown into the chamber at the velocity of 2/min for 3 minutes. A mouse anaesthetized was taken out from the chamber and the time between the introduction of anesthesia to waking was measured by righting reflex as the index. To mice of control group, 1% Gummi Arabicum aqueous physiological solution was orally administered at the dosage of 0.1 ml/kg body.

Data set [1] relates to jumping behavior induced by Methamphetamine and L-DOPA. Briefly: Activity for inhibiting jumping behavior in mouse induced by Methamphetamine and L-DOPA. Type of data set: in vivo, mouse (male, ddy-strain). Particulars: oral, Methamphetamine 4 mg/kg i.p. and L-DOPA 400 mg/kg i.p., positive = 10 or fewer jumps, read-out: ED50 value, inhibition of jumping behavior. The procedure: (B) Activity for inhibiting jumping behavior in mouse induced by Methamphetamine and L-DOPA
Individual male mice of ddy-strain having a body weight of 17 to 25 g were used. The mice were not fed for 24 hours. One test group consisted of 6 mice. A compound to be tested was administered orally. 40Minutes after the administration 4 mg/kg of Methamphetamine d-N-α-dimethylphenthylamine was intraperitonerally administered, further 15 minutes after the administration of Methamphetamine, 400 mg/kg of L-DOPA was intraperitonerally administered. 60 Minutes after the administration of L-DOPA, (3-(3,4-dihydroxyphenyl)alanine) the mouse was placed in a glass beaker of 2 liters capacity, and the number of jumping of the mouse was recorded. The activity for inhibiting jumping behavior of the test compound was determined as positive in case of number of jumping performed by the administered mouse counted 10 or less. While, the activity for inhibiting jumping behabior of the test compound was determined as negative in case the number of jumping performed by the administered mouse recorded over 10. The effective dosage (ED50 value: mg/kg) of the test compound which gives 3 mice were positive over 6 mice of one test group was calculated. The number of jumping performed by the mouse being administered with physiological saline solution as the reference was 150 to 200 per hour. (Cf. H. Lal, F. C. Colpaert, P. Laduron: European J. Pharmacol., 30, 113-116 (1975)).

The subject of the next data set is epinephrine. Description: Activity for antagonizing epinephrine in mouse. It counts as in vivo, mouse (male, ddy strain). Particulars: oral, 1 hour before epinephrine 40 mg/kg i.p., survival at 24 hours, read-out: ED50 value, dose allowing half the animals to survive. On the procedure: (C) Activity for antagonizing epinephrine in mouse
Individual male mice of ddy strain having 17 to 20 g of body weight were used. The mice were abstained from eating for 24 hours. One test group consist of 10 mice. A compound to be tested was administered orally. One hour after the administration, 40 mg/kg of epinephrine was intraperitonerally administered. […] All of 10 mice administered physiological saline solution as the reference group were dead within a few minutes after the administration of epinephrine. (Cf. Loew, E. R. and Micetich, A., J. Pharmacol. Exp. Ther., 93, 434-443 (1948)).

The test system of the next data set is palpebral ptosis. Briefly: Palpebral ptosis test in mouse. It counts as in vivo, mouse (male, ddy-strain). As to conditions: 64 mg/kg oral, 1 hour; score 0 (wide open eyes) to 8 (eyes completely closed); mean of 10 mice. On the procedure: (D) Activity of palpebral ptosis test in mouse
Individual male mice of ddy-strain having 18 to 20 g of body weight were used. The mice were abstained from eating for 24 hours. One test group consists of 10 mice. […] One hour after the administration, the state of palpebral ptosis of the mouse were observed and evaluated on the basis of the following score system. The mean value was calculated from the scores of 10 mice.
Score Degree of palpebral ptosis
8 Eyes completely closed.

In the next data set the test system is male rats. Particulars: rat, in vivo, po. The procedure:
Each of the following compound of the general formula in the present invention was administered orally to male rats to determine the acute toxicity (LD50 mg/kg).

For data set [2], the target named is retraction of ileum caused by histamine (Cavia porcellus, UniProt P31389). Description: Antihistaminic activity test in vitro, enucleated ileum of guinea pig. Set-up: species or system guinea pig (male). The source says: (E) Antihistaminic activity test
retraction of ileum caused by histamine, sequence (P31389 whole entry): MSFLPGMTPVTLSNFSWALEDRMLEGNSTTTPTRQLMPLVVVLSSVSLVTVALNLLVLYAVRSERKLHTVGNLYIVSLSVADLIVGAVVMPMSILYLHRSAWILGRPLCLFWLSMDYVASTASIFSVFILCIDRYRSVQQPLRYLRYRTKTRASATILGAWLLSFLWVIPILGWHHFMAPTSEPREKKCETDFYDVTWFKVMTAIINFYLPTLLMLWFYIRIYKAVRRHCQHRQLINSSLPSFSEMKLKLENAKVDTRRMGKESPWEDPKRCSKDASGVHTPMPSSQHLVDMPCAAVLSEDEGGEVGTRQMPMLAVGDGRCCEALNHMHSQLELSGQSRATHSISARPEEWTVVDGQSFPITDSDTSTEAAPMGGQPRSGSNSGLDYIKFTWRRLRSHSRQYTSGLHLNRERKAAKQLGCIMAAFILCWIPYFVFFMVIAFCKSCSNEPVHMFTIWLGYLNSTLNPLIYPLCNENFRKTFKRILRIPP
As to the test method for determining antihistaminic activity of a compound in vitro, a method of using an enucleated ileum of a guinea pig is generally accepted. Antihistaminic activity of the present compounds was conduted according to said method as follows:
A male guinea pig having 300 to 500 g body weight was killed by blood letting. An ileum having length of 15 cm being enucleated from the ileocecal region was dipped into Tyrode's solution (which was prepared from 8.0 g of NaCl, 0.2 g of KCl, 0.2 g of CaCl2, 1.0 g of glucose, 1.0 g of NaHCO3, 0.065 g of NaHPO4.2H2 O and 0.2135 g of MgCl2.6H2 O make 1000 ml in total volume by adding water). Then the tissue of ileum was cut to a length of 2.5 to 3.0 cm and suspended in an organ bath filled with 30 ml of Tyrode's solution. The organ bath was kept a temperature of 36° C. and blowing a mixed gas consisting of 5% of CO2 and 95% of O2 into the bath. 10 Minutes after the blowing, 10^-6M of histamine was added to the bath to examine the sensitivity of the tissue and a reaction curve (control) with respect to the dosage of histamine was obtained. After the dosage of histamine-reaction curve (control) become constant 10^-6 g/ml of a compound to be tested was added to the bath and further histamine was added 5 minutes later to obtain dosage-reaction curve. Retraction of the isotonic was recorded on a pen-recorder through an isotonic transducer (TD-112S manufactured by Nihon Koden). Antihistaminc activity of the test compound was determined as pA2 value by "Van Rossam" method (J. M. Van Rossam: Arch. Inst. Pharmacodyn. Ther., 143, 299 (1963)) in terms of that the maximum retraction of ileum caused by histamine shown in the control curve is 100%.

Setting [3] is: 10^-6 g/ml test compound, histamine, Tyrode's solution, 36° C., Van Rossam method, read-out: pA2 (converted).

SMILES strings stand for the structures. Counter-ions that a name gives are not always drawn. Like-named read-outs stand apart in the source and are kept apart here.

The ED50 is the midpoint of the dose-response relation. Consider `O=C1CCc2cc(C(=O)CCN3CCN(c4ccccc4)CC3)ccc2N1` [Compound 1, 6-[1-Oxo-3-(4-phenyl-1-piperazinyl)propyl]-3,4-dihydrocarbostyril], for which, in the data set on Halothane anesthesia, the “Time (minutes) between introduction of anesthesia to waking” value (from here on “Time (minutes) between introduction”) is 13.3 min. For the same molecule, the ED50 in data set [1] is 1.35 mg/kg; with epinephrine it was 3.03 mg/kg. The “Score obtained (Mean value), degree of palpebral ptosis” value (“Score obtained (Mean value), degree” below) in the data set on palpebral ptosis amounted to 1.67. Moreover, in the data set with male rats, the “Acute toxicity (LD50)” value was found to be 500 mg/kg.
For the molecule `O=C1CCc2cc(C(=O)CCCN3CCN(c4ccccc4)CC3)ccc2N1` [Compound 2, 6-[1-Oxo-4-(4-phenyl-1-piperazinyl)butyl]-3,4-dihydrocarbostyril.monohydrochloride], the “Time (minutes) between introduction” value in the data set with Halothane anesthesia stood at 11.5 min. Also, the ED50 in data set [1] was determined as 1.52 mg/kg; with epinephrine, 4.02 mg/kg. For the same molecule, in the data set with palpebral ptosis, the “Score obtained (Mean value), degree” value is listed as 4.5. The “Acute toxicity (LD50)” value in the data set with male rats stood at 500 mg/kg.
As to `O=C1CCc2cc(C(=O)CCCN3CCN(c4ccccc4Cl)CC3)ccc2N1` [Compound 3, 6-{1-Oxo-4-[4-(2-chlorophenyl)-1-piperazinyl]butyl}-3,4-dihydrocarbostyril.monohydrochloride.monohydrate], in the data set on Halothane anesthesia, the “Time (minutes) between introduction” value worked out at 8.0 min. The median effective dose (ED50) stood at 1.05 mg/kg in data set [1] and 6.12 mg/kg in the data set with epinephrine. The “Score obtained (Mean value), degree” value in the data set with palpebral ptosis turned out to be 2.0. Besides, the “Acute toxicity (LD50)” value with male rats came to 500 mg/kg.
`CN1C(=O)CCc2cc(C(=O)CCN3CCN(c4ccccc4)CC3)ccc21` [Compound 20, 1-Methyl-6-[1-oxo-3-(4-phenyl-1-piperazinyl)propyl]-3,4-dihydrocarbostyril.monooxalate]: the Kb in data set [2] (setting [3]) was 26.3 nM. Moreover, the “Acute toxicity (LD50)” value in the data set on male rats came out at 500 mg/kg.
As for `Cc1cccc(N2CCN(CC=Cc3ccc4c(c3)CCC(=O)N4Cc3ccccc3)CC2)c1` [Compound 21, 1-Benzyl-6-{3-[4-(3-methylphenyl)-1-piperazinyl]-1-propenyl}-3,4-dihydrocarbostyril monooxalate], the Kb in data set [2] (setting [3]) was 49 nM.
With `O=C1CCc2c(CCCN3CCN(c4ccccc4)CC3)cccc2N1` [Compound 22, 5-[3-(4-Phenyl-1-piperazinyl)propyl]-3,4-dihydrocarbostyril], in data set [2] (setting [3]), the Kb is 97.7 nM. Besides, the “Acute toxicity (LD50)” value in the data set on male rats came to 500 mg/kg.
Molecule `Cc1ccc(C2=CCN(CC=Cc3ccc4c(c3)CCC(=O)N4)CC2)cc1` [Compound 23, 6-{3-[4-(4-Methylphenyl)-1,2,5,6-tetrahydropyridyl]-1-propenyl}-3,4-dihydrocarbostyril] showed a Kb in data set [2] of 15.5 nM. The “Acute toxicity (LD50)” value in the data set with male rats came to 500 mg/kg.
`O=C1CCc2cc(C(=O)CCN3CCC(Cc4ccccc4)CC3)ccc2N1` [Compound 24]: the Kb in data set [2] (setting [3]) is 58.9 nM. For the same molecule, the “Acute toxicity (LD50)” value in the data set with male rats was determined as 500 mg/kg.
